Key:
mouse D1 receptor = target: T1, mouse D1 receptor (Mus musculus, UniProt Q61616); test: cAMP assay: potentiation of EC20 dopamine in transiently transfected HEK293 cells; format: cell-based; conditions: mouse D1, HEK293 transient, n = 4
T1 construct: expressed in transfected cells; host or cells: HEK293 (transient, Jump-In vector)
Procedure: (§1) The human, rhesus monkey, dog, or mouse D1 receptor was cloned into the Jump-In vector system (Life Technologies Corp, CA) and transiently transfected into HEK293 cells. Increases in cAMP by DPTQ (free base, Eli Lilly) were measured in the presence of an EC20 concentration of dopamine. The EC50 values for each species along with % max stimulation (where dopamine max stimulation equals 100%) are presented in Table 1. These in vitro studies were performed at Eli Lilly and Company, Indianapolis, in USA. For further details on the measurement of effects on cAMP accumulation in these transiently transfected cells, see Hao et al. ([2019]).

dog D1 receptor = test: as above; format: cell-based; conditions: dog D1, HEK293 transient, n = 4
Procedure: as §1

[1] = target: T2, rhesus monkey D1 receptor (Macaca mulatta, UniProt O77680); test: as above; format: cell-based; conditions: rhesus D1, HEK293 transient, n = 4
T2 construct: expressed in transfected cells; host or cells: HEK293 (transient, Jump-In vector)
Procedure: as §1

human D1 receptor = target: T3, human D1 receptor (Homo sapiens, UniProt P21728); test: as above; format: cell-based; conditions: human D1, HEK293 transient, n = 4
T3 construct: expressed in transfected cells; host or cells: HEK293 (transient, Jump-In vector)
Procedure: as §1

[2] = Brain penetration, unbound brain/plasma ratio and unbound ligand fraction; conditions: J. Cramer, unpublished data
rhesus monkeys = test: Spontaneous eye blink rate, cumulative dosing; format: in vivo, rhesus monkey
Text: Eleven 5–6-year-old, male rhesus monkeys (Chengdu Ping, An Animal Breeding and Research Base, Sichuan Province, China) with an average weight of 4.83 kg were included in the study. The animals were randomly divided into three groups, DPTQ higher cumulative dose group (n = 4); DPTQ lower cumulative dose group (n = 3); and vehicle (20% Captisol (CyDex Pharmaceuticals, Inc., KS) in NaPO4 buffer) group (n = 4). The D1 agonist SKF82958 was included as a positive control; the results for this compound (not shown here) were recently published together with data for a different D1PAM (DETQ, see Bruns et al. [2018]). The D1 selective antagonist SCH39166 hydrobromide (Cat No.: 2299, Batch No.: 3A/129719) was purchased from Tocris, MN, and was prepared in Millipore pure water with the injection volume 0.2 ml/kg. The D1 antagonist was dosed 15 min before vehicle or DPTQ (n = 4 animals per group).
Spontaneous eye blinking rate was measured during observational experiments conducted in a specially constructed monkey chair (Mason et al. [2019]). A U-shaped neck plate that helped to fixate the orientation of the head was used to facilitate observation of eye blink rate response. A compact video camera (Panasonic/wv-cp480/CH) on a tripod was positioned in front of the seated monkey. Two camera images were combined by video collector (Color QUAD system) and transferred to the EthoVision software (Noldus, Leesburg, VA) on the computer for on-line viewing and recording.
Two weeks before testing, monkeys were trained daily to sit in the monkey chair for two 2-h periods with food reward. During post-training test sessions conducted between 9:00 am and 4:30 pm every day, each monkey was studied for nine consecutive 15-min components. Each 15-min block consisted of a 10-min habituation period followed by a 5-min period during which eye blinking was counted. […] Observers blind to the treatment conditions later scored each 5-min videotaped session. An eye blink was defined as a visible, rapid opening and closing of the eyelid. Two observers independently confirmed the measurement with reliability > 90%.
The effects of different D1 ligands on spontaneous eye blink rate were studied by a cumulative dosing procedure (Jutikiewicz and Bergman 2004). Active compound or vehicle (Captisol 20% w/v NaPO4 buffer) was administered after obtaining two baseline eye blink recordings. The ligand was given in random order to different monkeys of each group as described above. To study dose response and time course, incremental doses of DPTQ were administrated at the end of 15-min components of each test session.
DPTQ (free base, see Hao et al. [2019]) was supplied by Eli Lilly Company. Captisol (Lot No.: NC-04A-05034) was prepared as follows: Captisol 20% w/v NaPO4 buffer 25 mM, pH 8. The injection volume for DPTQ was 0.5 ml/kg IM. DPTQ at 0.1 mg/kg, 0.5 mg/kg, and 1 mg/kg were dosed as clear solution, while the 5 mg/kg and 10 mg/kg doses were formulated as fine suspensions. The above vehicle solution was stored at 4℃ in a refrigerator and restored to room temperature before use. When preparing DPTQ fresh daily, a portion of the vehicle (20% Captisol) was added to the compound and stirred to wet, followed by addition of the remainder of the vehicle and mixing until the solution became homogeneous. The suspension was then sonicated on an ice bath for 40 min to reduce particle size. Animals were dosed while in the chair.
Results for each monkey were expressed as the rate of eye blinking (blinks per minute) averaged over each 5-min testing epoch. The effects of vehicle and D1 PAM on eye blinking were averaged for each group of monkeys and expressed as mean ± SE. The effects of DPTQ and vehicle were analyzed with two-way ANOVA (D1 PAM and time) followed by Bonferroni post hoc test (GraphPad Prism, San Diego CA).

T3 sequence (P21728 whole entry): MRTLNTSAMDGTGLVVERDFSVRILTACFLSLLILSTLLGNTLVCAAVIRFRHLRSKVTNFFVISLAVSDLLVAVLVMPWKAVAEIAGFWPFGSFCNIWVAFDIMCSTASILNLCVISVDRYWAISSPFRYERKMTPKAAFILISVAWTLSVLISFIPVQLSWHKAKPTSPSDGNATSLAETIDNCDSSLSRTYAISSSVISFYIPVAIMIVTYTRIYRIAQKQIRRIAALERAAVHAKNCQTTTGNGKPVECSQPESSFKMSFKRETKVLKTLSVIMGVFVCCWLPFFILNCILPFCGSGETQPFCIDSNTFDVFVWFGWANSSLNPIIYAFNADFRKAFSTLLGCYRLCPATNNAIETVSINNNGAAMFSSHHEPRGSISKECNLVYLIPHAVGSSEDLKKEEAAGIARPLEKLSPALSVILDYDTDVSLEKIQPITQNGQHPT
T1 sequence (Q61616 whole entry): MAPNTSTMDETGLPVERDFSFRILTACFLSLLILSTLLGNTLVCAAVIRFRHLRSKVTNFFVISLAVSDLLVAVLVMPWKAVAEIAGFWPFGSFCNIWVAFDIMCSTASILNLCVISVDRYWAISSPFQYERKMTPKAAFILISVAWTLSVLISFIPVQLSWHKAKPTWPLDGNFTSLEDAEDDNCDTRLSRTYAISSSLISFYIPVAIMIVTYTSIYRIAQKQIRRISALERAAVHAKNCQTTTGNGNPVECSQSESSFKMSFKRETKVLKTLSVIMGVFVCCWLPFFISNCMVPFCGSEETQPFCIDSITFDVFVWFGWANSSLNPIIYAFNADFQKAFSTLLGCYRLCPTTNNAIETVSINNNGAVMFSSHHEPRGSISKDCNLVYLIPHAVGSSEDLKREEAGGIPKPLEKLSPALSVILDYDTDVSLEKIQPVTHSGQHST
T2 sequence (O77680 whole entry): as the sequence (P21728 whole entry) above, with N311I counted along it

C[C@H]1c2cccc(CC(C)(C)O)c2C[C@H](CO)N1C(=O)Cc1c(Cl)cccc1Cl [DPTQ]
EC50 (mouse D1 receptor): 534 nM
Max stimulation (% of max DA) (mouse D1 receptor): 41 % of max DA
EC50 (dog D1 receptor): 21.5 nM
Max stimulation (% of max DA) (dog D1 receptor): 88 % of max DA
EC50 [1]: 38 nM
Max stimulation (% of max DA) [1]: 82 % of max DA
EC50 (human D1 receptor): 22.9 nM
Max stimulation (% of max DA) (human D1 receptor): 77 % of max DA
Unbound brain vs unbound plasma concentration ratio [2]: about 0.3
Unbound ligand fraction [2]: 0.068
Increase in eye blink rate after SCH39166 pretreatment (rhesus monkeys; DPTQ 0.5, 5, 10 mg/kg cumulative, SCH39166 0.03 mg/kg IM 15 min before): small, non-significant
Oral movement (rhesus monkeys; both high and lower cumulative doses, clear effect only at higher dose at 30 min): some degree of oral movement such as tongue protrusion
Spontaneous eye blink rate vs vehicle (rhesus monkeys; higher cumulative dose 0.5, 5 and 10 mg/kg IM, at 30, 45, 60 and 75 min): significant increases
Spontaneous eye blink rate vs vehicle (rhesus monkeys; lower cumulative dose 0.1, 1 and 5 mg/kg IM, only at 45 and 60 min): small but significant
